Results taken from patent US20110200535A1, “DAA-PYRIDINE AS PERIPHERAL BENZODIAZEPINE RECEPTOR LIGAND FOR DIAGNOSTIC IMAGING AND PHARMACEUTICAL TREATMENT” (BAYER SCHERING PHARMA AKTIENGESELLSCHAFT, priority 2008, published 2011).
Values joined by “and” are separate entries in the source; they are usually repeats but may differ in a detail not shown here. Equal entries are not always repeated.

Tests used:
Type in all cases: in vivo
[1] = Biodistribution of [^18F]-radioactivity in healthy male NMRI mice after intravenous injection (gamma counter); conditions: for Elimination from mouse brain, 2 min/30 min ratio of brain uptake (% ID/g): 2 min to 30 min; for [^18F]-radioactivity in adrenals / [^18F]-radioactivity in blood / [^18F]-radioactivity in bone / [^18F]-radioactivity in brain (brain uptake) / [^18F]-radioactivity in fat / [^18F]-radioactivity in heart / [^18F]-radioactivity in intestine / [^18F]-radioactivity in kidney / [^18F]-radioactivity in liver / [^18F]-radioactivity in lung / [^18F]-radioactivity in muscle / [^18F]-radioactivity in pancreas / [^18F]-radioactivity in skin / [^18F]-radioactivity in spleen / [^18F]-radioactivity in stomach / [^18F]-radioactivity in testes / [^18F]-radioactivity in thyroid: normal mice, i.v., decay corrected
Method: (§1) The biodistribution of [^18F]-2d and [^18F]-5d was investigated in healthy male NMRI mice (28.3-35.6 g body weight, n=3 animals per time point) at 2, 5, 30, 60 and 180/240 min after intravenous injection of 0.264 MBq [^18F]-2d and 0.268 MBq [^18F]-5d per animal, respectively. Until the indicated time points urine and faeces were quantitatively collected. At the respective time points the mice were sacrificed and the tissues were removed. [^18F]-radioactivity was analyzed in a gamma counter (Tab. 1.1, 2.1 and 1.2, 2.2).

[2] = Excretion of [^18F]-radioactivity via urine and faeces in normal mice (gamma counter); conditions: i.v., decay corrected
Method: as §1

[3] = biological target: T1, peripheral benzodiazepine receptor (PBR) (Rattus norvegicus, UniProt P16257); test: Ex vivo autoradiography of brain sections, rat kainic acid induced epilepsy model; conditions: for Hipp/Cereb ratio (signal-to-background ratio, hippocampus/cerebellum): rat kainic acid model, 30 min ex vivo autoradiography
T1 construct: from tissue; host or cells: rat brain (hippocampus, cerebellum) after i.v. tracer injection
Method: Using a rat kainic acid induced epilepsy model and respective sham controls the accumulation of [^18F]-2d and [^18F]-5d was visualized ex vivo. In brief, epilepsy was induced in rats by injecting kainic acid i.p. At day eight after the start of the kainic acid treatment [^18F]-2d and [^18F]-5d were injected into the tail vein of the rats and their sham treated controls (PBS instead of kainic acid) at a dose of 25.8-35.8 MBq (approximately 1.0 μg) per rat. Thirty minutes after intravenous injection the rats were sacrificed, the brains were taken out, snap frozen and sliced transversally in a cryostat. The slices were exposed to PhosphoImager plates over night. The resulting autoradiographic signals were analyzed qualitatively and quantitatively (FIG. 2.1 A and C, 2.2 A and C). […] To determine the specificity of the [^18F]-2d and [^18F]-5d binding, kainic acid treated rats were co-injected with [^19F]-2e and [^19F]-5e, respectively.
The autoradiographic signals were quantified. The signal intensity in a hippocampal region of interest (ROI) was measured and compared to a ROI in the cerebellum, that was used as reference region.

COc1ccc(OCC[18F])c(CN(C(C)=O)c2cccnc2Cc2ccc(F)cc2)c1 [compound 21]
Elimination from mouse brain, 2 min/30 min ratio of brain uptake (% ID/g) ([1]; mice): 4.85

COc1ccc(OCC[18F])c(CN(C(C)=O)c2cccnc2Oc2cccc(C)c2C)c1 [[^18F]-5d, N-[2-(2,3-dimethylphenoxy)pyridin-3-yl]-N-[2-(2-[^18F]fluoroethoxy)-5-methoxybenzyl]acetamide]
Initial elimination of the radioactivity from the brain ([1]; mice, 30 min p.i.): ca. 73% | Elimination from mouse brain, 2 min/30 min ratio of brain uptake (% ID/g) ([1]; mice): 3.7 | [^18F]-radioactivity in adrenals ([1]; 2 min): 9.90 ± 1.17 % injected dose/g | [^18F]-radioactivity in blood ([1]; 2 min): 2.75 ± 0.40 % injected dose/g | [^18F]-radioactivity in bone ([1]; 2 min): 1.02 ± 0.31 % injected dose/g | [^18F]-radioactivity in brain (brain uptake) ([1]; 2 min): 1.61±0.23 % injected dose/g | [^18F]-radioactivity in fat ([1]; 2 min): 0.24 ± 0.08 % injected dose/g | [^18F]-radioactivity in heart ([1]; 2 min): 17.21 ± 1.43 % injected dose/g | [^18F]-radioactivity in intestine ([1]; 2 min): 0.77 ± 0.24 % injected dose/g | [^18F]-radioactivity in kidney ([1]; 2 min): 6.15 ± 1.95 % injected dose/g | [^18F]-radioactivity in liver ([1]; 2 min): 1.51 ± 0.38 % injected dose/g | [^18F]-radioactivity in lung ([1]; 2 min): 65.87 ± 15.87 % injected dose/g | [^18F]-radioactivity in muscle ([1]; 2 min): 1.23 ± 0.27 % injected dose/g | [^18F]-radioactivity in pancreas ([1]; 2 min): 1.54 ± 0.34 % injected dose/g | [^18F]-radioactivity in skin ([1]; 2 min): 0.52 ± 0.02 % injected dose/g | [^18F]-radioactivity in spleen ([1]; 2 min): 1.40 ± 0.06 % injected dose/g | [^18F]-radioactivity in stomach ([1]; 2 min): 2.03 ± 1.05 % injected dose/g | [^18F]-radioactivity in testes ([1]; 2 min): 0.50 ± 0.01 % injected dose/g | [^18F]-radioactivity in thyroid ([1]; 2 min): 3.97 ± 1.12 % injected dose/g | [^18F]-radioactivity in adrenals ([1]; 5 min): 28.94 ± 11.26 % injected dose/g | [^18F]-radioactivity in blood ([1]; 5 min): 2.13 ± 0.23 % injected dose/g | [^18F]-radioactivity in bone ([1]; 5 min): 1.41 ± 0.19 % injected dose/g | [^18F]-radioactivity in brain (brain uptake) ([1]; 5 min): 1.13 ± 0.22 % injected dose/g | [^18F]-radioactivity in fat ([1]; 5 min): 0.24 ± 0.03 % injected dose/g | [^18F]-radioactivity in heart ([1]; 5 min): 18.45 ± 1.69 % injected dose/g | [^18F]-radioactivity in intestine ([1]; 5 min): 1.42 ± 0.02 % injected dose/g | [^18F]-radioactivity in kidney ([1]; 5 min): 8.53 ± 1.50 % injected dose/g | [^18F]-radioactivity in liver ([1]; 5 min): 2.19 ± 31^ % injected dose/g | [^18F]-radioactivity in lung ([1]; 5 min): 45.38 ± 5.54 % injected dose/g | [^18F]-radioactivity in muscle ([1]; 5 min): 1.89 ± 0.32 % injected dose/g | [^18F]-radioactivity in pancreas ([1]; 5 min): 2.37 ± 0.56 % injected dose/g | [^18F]-radioactivity in skin ([1]; 5 min): 0.79 ± 0.07 % injected dose/g | [^18F]-radioactivity in spleen ([1]; 5 min): 3.25 ± 0.15 % injected dose/g | [^18F]-radioactivity in stomach ([1]; 5 min): 3.04 ± 0.49 % injected dose/g | [^18F]-radioactivity in testes ([1]; 5 min): 0.71 ± 0.10 % injected dose/g | [^18F]-radioactivity in thyroid ([1]; 5 min): 4.25 ± 0.79 % injected dose/g | [^18F]-radioactivity in adrenals ([1]; 30 min): 12.31 ± 0.43 % injected dose/g | [^18F]-radioactivity in blood ([1]; 30 min): 0.80 ± 0.17 % injected dose/g | [^18F]-radioactivity in bone ([1]; 30 min): 2.05 ± 0.08 % injected dose/g | [^18F]-radioactivity in brain (brain uptake) ([1]; 30 min): 0.44±0.15 % injected dose/g and 0.44 ± 0.51 % injected dose/g | [^18F]-radioactivity in fat ([1]; 30 min): 0.61 ± 0.26 % injected dose/g | [^18F]-radioactivity in heart ([1]; 30 min): 7.53 ± 2.41 % injected dose/g | [^18F]-radioactivity in intestine ([1]; 30 min): 2.48 ± 0.78 % injected dose/g | [^18F]-radioactivity in kidney ([1]; 30 min): 9.53 ± 0.82 % injected dose/g | [^18F]-radioactivity in liver ([1]; 30 min): 3.52 ± 1.35 % injected dose/g | [^18F]-radioactivity in lung ([1]; 30 min): 9.83 ± 1.66 % injected dose/g | [^18F]-radioactivity in muscle ([1]; 30 min): 2.14 ± 0.31 % injected dose/g | [^18F]-radioactivity in pancreas ([1]; 30 min): 2.46 ± 0.19 % injected dose/g | [^18F]-radioactivity in skin ([1]; 30 min): 1.23 ± 0.21 % injected dose/g | [^18F]-radioactivity in spleen ([1]; 30 min): 5.68 ± 0.59 % injected dose/g | [^18F]-radioactivity in stomach ([1]; 30 min): 3.01 ± 0.70 % injected dose/g | [^18F]-radioactivity in testes ([1]; 30 min): 0.75 ± 0.19 % injected dose/g | [^18F]-radioactivity in thyroid ([1]; 30 min): 3.81 ± 0.42 % injected dose/g | [^18F]-radioactivity in adrenals ([1]; 60 min): 16.66 ± 2.86 % injected dose/g | [^18F]-radioactivity in blood ([1]; 60 min): 0.75 ± 0.01 % injected dose/g | [^18F]-radioactivity in bone ([1]; 60 min): 1.69 ± 0.26 % injected dose/g | [^18F]-radioactivity in brain (brain uptake) ([1]; 60 min): 0.34 ± 0.06 % injected dose/g | [^18F]-radioactivity in fat ([1]; 60 min): 3.27 ± 0.30 % injected dose/g | [^18F]-radioactivity in heart ([1]; 60 min): 5.76 ± 0.87 % injected dose/g | [^18F]-radioactivity in intestine ([1]; 60 min): 3.31 ± 0.16 % injected dose/g | [^18F]-radioactivity in kidney ([1]; 60 min): 9.57 ± 0.76 % injected dose/g | [^18F]-radioactivity in liver ([1]; 60 min): 2.35 ± 0.35 % injected dose/g | [^18F]-radioactivity in lung ([1]; 60 min): 6.46 ± 1.07 % injected dose/g | [^18F]-radioactivity in muscle ([1]; 60 min): 2.13 ± 0.21 % injected dose/g | [^18F]-radioactivity in pancreas ([1]; 60 min): 2.34 ± 0.48 % injected dose/g | [^18F]-radioactivity in skin ([1]; 60 min): 1.39 ± 0.10 % injected dose/g | [^18F]-radioactivity in spleen ([1]; 60 min): 5.79 ± 0.10 % injected dose/g | [^18F]-radioactivity in stomach ([1]; 60 min): 4.21 ± 0.25 % injected dose/g | [^18F]-radioactivity in testes ([1]; 60 min): 0.90 ± 0.10 % injected dose/g | [^18F]-radioactivity in thyroid ([1]; 60 min): 3.21 ± 0.75 % injected dose/g | [^18F]-radioactivity in adrenals ([1]; 240 min): 13.93 ± 6.07 % injected dose/g | [^18F]-radioactivity in blood ([1]; 240 min): 0.60 ± 0.07 % injected dose/g | [^18F]-radioactivity in bone ([1]; 240 min): 2.6 % injected dose/g and 2.59 ± 0.56 % injected dose/g | [^18F]-radioactivity in brain (brain uptake) ([1]; 240 min): 0.32 ± 0.08 % injected dose/g | [^18F]-radioactivity in fat ([1]; 240 min): 0.86 ± 0.10 % injected dose/g | [^18F]-radioactivity in heart ([1]; 240 min): 2.21 ± 0.24 % injected dose/g | [^18F]-radioactivity in intestine ([1]; 240 min): 3.96 ± 0.16 % injected dose/g | [^18F]-radioactivity in kidney ([1]; 240 min): 6.84 ± 0.69 % injected dose/g | [^18F]-radioactivity in liver ([1]; 240 min): 1.76 ± 0.23 % injected dose/g | [^18F]-radioactivity in lung ([1]; 240 min): 3.42 ± 0.73 % injected dose/g | [^18F]-radioactivity in muscle ([1]; 240 min): 1.32 ± 0.11 % injected dose/g | [^18F]-radioactivity in pancreas ([1]; 240 min): 1.41 ± 0.22 % injected dose/g | [^18F]-radioactivity in skin ([1]; 240 min): 1.47 ± 0.06 % injected dose/g | [^18F]-radioactivity in spleen ([1]; 240 min): 3.02 ± 0.25 % injected dose/g | [^18F]-radioactivity in stomach ([1]; 240 min): 3.43 ± 0.54 % injected dose/g | [^18F]-radioactivity in testes ([1]; 240 min): 0.94 ± 0.12 % injected dose/g | [^18F]-radioactivity in thyroid ([1]; 240 min): 2.50 ± 0.15 % injected dose/g | Excretion of [^18F]-radioactivity via faeces ([2]; 2 min): 0.00 ± 0.00 % injected dose | Excretion of [^18F]-radioactivity via urine ([2]; 2 min): 0.02 ± 0.02 % injected dose | Excretion of [^18F]-radioactivity via faeces ([2]; 5 min): 0.00 ± 0.00 % injected dose | Excretion of [^18F]-radioactivity via urine ([2]; 5 min): 0.04 ± 0.00 % injected dose | Excretion of [^18F]-radioactivity via faeces ([2]; 30 min): 0.03 ± 0.02 % injected dose | Excretion of [^18F]-radioactivity via urine ([2]; 30 min): 2.33 ± 1.20 % injected dose | Excretion of [^18F]-radioactivity via faeces ([2]; 60 min): 0.04 ± 0.02 % injected dose | Excretion of [^18F]-radioactivity via urine ([2]; 60 min): 4.21 ± 0.97 % injected dose | Excretion of [^18F]-radioactivity via faeces ([2]; 240 min): 0.74±1.01 % injected dose | Excretion of [^18F]-radioactivity via urine ([2]; 240 min): 15.24±1.25 % injected dose | Specificity of binding: autoradiographic signal on co-injection of the corresponding [^19F] compound ([3]; kainic acid treated rats, co-injected with [^19F]-2e and [^19F]-5e, respectively): significantly reduced autoradiographic signal | Hipp/Cereb ratio (signal-to-background ratio, hippocampus/cerebellum) [3]: 3.0 ± 0.9 | Hipp/Cereb ratio (signal-to-background ratio, hippocampus/cerebellum) ([3]; listed as 5d): 3.0±0.9

COc1ccc(OCC[18F])c(CN(C(C)=O)c2cc(F)ccc2Oc2ccccc2)c1 [[^18F]-FEDAA1106, reference compound]
Elimination from mouse brain, 2 min/30 min ratio of brain uptake (% ID/g) ([1]; mice): 2.0 | Elimination from mouse brain, 2 min/30 min ratio of brain uptake (% ID/g) ([1]; mice, listed as FEDAA): 2.00 | Hipp/Cereb ratio (signal-to-background ratio, hippocampus/cerebellum) [3]: 1.2±0.2
